Values quoted from earlier work as cited in paper PMC4937428, “The Next Generation Non-competitive Active Polyester Nanosystems for Transferrin Receptor-mediated Peroral Transport Utilizing Gambogic Acid as a Ligand” (Scientific Reports, 2016).

Design: method as in PMID 16918721
Settings: described in the literature

CC(C)=CCC[C@]1(C)C=Cc2c(O)c3c(c(CC=C(C)C)c2O1)O[C@]12C(=C[C@@H]4C[C@H]1C(C)(C)O[C@@]2(C/C=C(/C)C(=O)O)C4=O)C3=O [GA, gambogic acid]
Established safe dose: 60 mg/kg
